From patent US20200138907A1, “Composition for Use in the Treatment of an Individual Suffering a Condition Necessitating New Bone Formation” (priority 2016, published 2020)

Key:
rabbits [1] = assay: bone induction in intramuscularly implanted BCP constructs without BMP-2, biomembrane pocket model; format: in vivo, rabbit; settings: TNF-α 1, 10, 100 ng, no BMP-2, intramuscular, 12 weeks
Description: First, an assessment study was performed to verify the potential for ectopic bone formation in the biomembrane pocket model. […] The bone volume (area%) in the BCP constructs was the primary outcome after 8 (rats) or 12 (rabbits) weeks. Subsequently, the rabbit model (n=11) was used to 1) screen for the potential of inflammatory stimuli to induce bone intramuscularly and to 2) screen for the effects of inflammatory stimuli on BMP-induced bone formation subcutaneously. The bone volume (area%) in the BCP constructs was the primary outcome after 12 weeks.
Fibrin glue (Tissucol 500®, Baxter, Deerfield, Ill., USA) was subsequently used (55 μl volume) to load the inflammatory mediators onto the constructs. […]
After shaving and disinfecting the skin with 10% povidone-iodine, a midline incision was made to expose the paraspinal muscles. […] The incorporation of fluorochromes in the bone was examined by fluorescence microscopy on methyl methacrylate-embedded sections. […]
After retrieval of the constructs, a quarter of each sample was removed for decalcification and paraffin embedding. […] The samples were completely sectioned and scored for the presence of bone. Two mid-sections were pseudo-coloured in Adobe Photoshop CS6 (Adobe Systems, San Jose, USA) to quantify the percentage of bone in the available pore space (bone area %). […]

rabbits [2] = assay: BMP-2 induced bone formation in subcutaneously implanted BCP constructs, biomembrane pocket model; format: in vivo, rabbit
Description: For the comparative study (Table 2), inflammatory stimuli were added to the BCP, alone or in combination with BMP-2. Either 1.5 μg of BMP-2 or PBS (15 μl volume) was first applied. Fibrin glue (Tissucol 500®, Baxter, Deerfield, Ill., USA) was subsequently used (55 μl volume) to load the inflammatory mediators onto the constructs. For this purpose, the mediators were resuspended in 27.5 μl of the thrombin component (diluted 1:50 in PBS), then mixed with 27.5 μl of the fibrinogen component (diluted 1:30 in PBS) and immediately pipetted onto the BCP scaffolds. The control samples were treated with fibrin glue alone. The constructs were prepared on the day of surgery and stored in a humidified environment at 37° C. until implantation.
After shaving and disinfecting the skin with 10% povidone-iodine, a midline incision was made to expose the paraspinal muscles. In the rabbits, four intramuscular pockets were created on each side by blunt dissection for implantation of the PMMA discs (FIG. 2B). The same discs were implanted in subcutaneous pockets via the same approach. Pockets were closed with a non-resorbable suture (Prolene®, Ethicon, USA), followed by closure of the skin (Monocryl®, Ethicon). At the second surgery, an incision was made in the membrane surrounding the PMMA disc, the disc was replaced by a BCP construct, and the opening was sutured (Prolene®, Ethicon). […] Fluorochrome labels were injected subcutaneously to determine the onset and location of new bone formation (van Gaalen et al., 2010): calcein green (10 mg/kg s.c. in 0.2 M NaHCO3, Sigma), oxytetracycline (25 mg/kg s.c. in 50/50 PBS/demineralised water, Merck Millipore, Billerica, USA) xylenol orange (30 mg/kg s.c. in 0.12 M NaHCO3, Sigma). The incorporation of fluorochromes in the bone was examined by fluorescence microscopy on methyl methacrylate-embedded sections. The rabbits were killed 12 weeks after the second surgery under general anesthesia, by intravenous Pentobarbital (Euthanimal®, Alfasan Nederland BV, Woerden, The Netherlands). The rats were killed with CO2, 8 weeks after the second surgery.
After retrieval of the constructs, a quarter of each sample was removed for decalcification and paraffin embedding. The remaining material was fixed in 4% paraformaldehyde, dehydrated by an ethanol series and embedded in methyl methacrylate (MMA, Merck Millipore).

Substance: TNF-α
- concentration dependence of bone induction (rabbits [1]): no concentration dependence
- number of constructs with bone formation (rabbits [1]): 2 constructs
- bone area % (rabbits [2]; 10 ng TNF-α with 1.5 μg BMP-2, subcutaneous, 12 weeks, p=0.005 vs control): 13.6±9.9 area %
- 4-week fluorochrome label (calcein) incorporation in bone (rabbits [2]; BCP constructs with 1.5 μg BMP-2 and 10 ng TNF-α vs BMP-2 alone): observed less frequently
- 8-week fluorochrome label (xylenol orange) incorporation in bone (rabbits [2]; BCP constructs with 1.5 μg BMP-2 and 10 ng TNF-α vs BMP-2 alone, gross examination): more abundant
- effect on BMP-2 induced bone formation (in words) (rabbits [2]; all doses, with 1.5 μg BMP-2, subcutaneous, 12 weeks): stimulatory effect
- bone formation at a higher concentration of TNF-α (rabbits [2]; higher than 10 ng TNF-α, with 1.5 μg BMP-2, subcutaneous, 12 weeks): reduction of bone formation
